Tests used:
Settings in all cases: 48 h
CU-ACC1 [1] = test: AC50 viability; higher = less potent
Method in brief: (§1)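 After 48 h of treatment with 23 nL of each library compound at 11 concentrations, three adrenocortical carcinoma cell lines in 1,536-well plates (500–1,000 cells/well, 5 µL medium) were given CellTiter-Glo for 15 minutes at room temperature. Luminescence was then read and normalised per plate to vehicle and empty-well controls. AC50 and area under the curve were drawn from fitted concentration-response curves of inhibitory or non-responding classes only.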

CU-ACC2 [2] = test: AC50 viability; higher = less potent
Method in brief: as §1

NCI-H295R [3] = test: AC50 viability; higher = less potent
Method in brief: as §1

CU-ACC1 [4] = test: area under concentration-response curve (viability) (AUC (a.u.)); higher = less active
Method in brief: as §1

CU-ACC2 [5] = test: as above
Method in brief: as §1

NCI-H295R [6] = test: as above
Method in brief: as §1

Row | SMILES | AC50 viability (CU-ACC1 [1]) | AC50 viability (CU-ACC2 [2]) | AC50 viability (NCI-H295R [3]) | area under concentration-response curve (CU-ACC1 [4]) | area under concentration-response curve (CU-ACC2 [5]) | area under concentration-response curve (NCI-H295R [6])
1 | Cc1ccc(C(N)=O)cc1Nc1nccc(-c2cn(C(C)C)c3cnccc23)n1 | 20.9 µM | 8.33 µM | 16.6 µM | 446 | 530 | 522
2 | C=CCNc1c(O)cc2c(O)c1C[C@@H](C)C[C@H](OC)[C@H](O)[C@@H](C)/C=C(/C)[C@H](OC(N)=O)[C@@H](OC)/C=C\C=C(\C)C(=O)N2 | 2.95 µM | 0.525 µM | 14.8 µM | 335 | 335 | 419
3 | CC1=C2N=C([NH]C2=CC(=C1)N3CCOCC3)\C4=C(NC[C@@H](O)C5=CC=CC(=C5)Cl)\C=C/NC4=O | 0.00331 µM | 0.833 µM | 0.468 µM | 342 | 277 | 303
4 | O=C(Nc1cc(C(F)(F)F)cc(C(F)(F)F)c1)c1cc(Cl)ccc1O | 2.63 µM | 1.86 µM | 2.95 µM | 429 | 493 | 463
5 | Cc1cc2cc(Oc3ccnc(Nc4cccc(C[S+](=O)([O-])NCCN(C)C)c4)n3)ccc2[nH]1 | 20.9 µM | 23.5 µM | 23.5 µM | 493 | 480 | 468
6 | Nc1cc(C(F)(F)F)c(-c2nc(N3CCOCC3)nc(N3CCOCC3)n2)cn1 | 5.25 µM | 16.6 µM | 3.72 µM | 381 | 413 | 441
7 | COC(=O)C/1=C(C)/N/C(=C(\C1C2=CC(=CC=C2)[N+]([O-])=O)C(=O)OCCCN3CCC(CC3)(C4=CC=CC=C4)C5=CC=CC=C5)C (stereo not given) | 13.2 µM | 16.6 µM | 7.42 µM | 426 | 374 | 465
8 | CCN1CCN(Cc2ccc(-c3cc4c(N[C@H](C)c5ccccc5)ncnc4[nH]3)cc2)CC1 | 23.5 µM | 23.5 µM | 18.6 µM | 452 | 534 | 492
9 | CNC1CCC(N(Cc2cccc(-c3ccncc3)c2)C(=O)c2sc3ccccc3c2Cl)CC1 (stereo not given) | 10.5 µM | 7.42 µM | 9.34 µM | 406 | 448 | 425
10 | Cc1cc(O)c(-c2ccc([C@@H](C)CN(C)C)cc2)c2c1[nH]c(=O)c1sccc12 | 0.235 µM | 0.166 µM | 0.295 µM | 311 | 346 | 305
11 | C=CCNC1=C2CC(C)CC(OC)C(O)C(C)/C=C(\C)C(OC(N)=O)C(OC)/C=C/C=C(\C)C(=O)NC(=CC1=O)C2=O (stereo not given) | 3.32 µM | 1.18 µM | 10.5 µM | 410 | 480 | 491
12 | COc1cc(C(=O)N2CCC(N3CCN(C)CC3)CC2)ccc1Nc1ncc2c(n1)N(C)c1ccccc1C(=O)N2C | 26.3 µM | 20.9 µM | 16.6 µM | 377 | 423 | 389
13 | CNc1nc(-c2ccc3c(N)n[nH]c3c2)cc(N2C[C@@H](C(=O)NC3CCCCC3)CC[C@H]2C)n1 | 20.9 µM | 20.9 µM | 18.6 µM | 458 | 544 | 506
14 | COc1cc(N[S+](C)(=O)[O-])ccc1Nc1c2ccccc2nc2ccccc12 | 13.2 µM | 7.42 µM | 13.2 µM | 299 | 409 | 420
15 | O=C(/C=C/c1cccc([S+](=O)([O-])Nc2ccccc2)c1)NO | 3.72 µM | 5.25 µM | 3.72 µM | 362 | 429 | 404
16 | CO[C@H]1CCC(O[C@H]2C[C@H]([C@]3(C)CC[C@]4(C[C@H](O)[C@@H](C)[C@@H]([C@@H](C)/C=C(\C)C(=O)[C@H](C)C[C@H](C)C(=O)[O-])O4)O3)O[C@]3(O[C@@H]([C@H]4O[C@@](O)(CO)[C@H](C)C[C@@H]4C)C[C@@H]3C)[C@@H]2C)O[C@@H]1C (stereo not given in full) | 1.48 µM | 2.35 µM | 2.63 µM | 400 | 392 | 440
17 | CC[C@@H]1C(=O)N(C)c2cnc(Nc3ccc(C(=O)NC4CCC(N5CCN(CC6CC6)CC5)CC4)cc3OC)nc2N1C(C)C (stereo not given in full) | 7.42 µM | 9.34 µM | 7.42 µM | 472 | 450 | 429
18 | CO[C@@H](C)Cn1c(=O)n(C)c2cnc3ccc(-c4cncc(C(C)(C)O)c4)cc3c21 | 0.742 µM | 0.661 µM | 1.05 µM | 398 | 419 | 445
19 | COc1cccc2c1C(=O)c1c(O)c3c(c(O)c1C2=O)C[C@@](O)(/C(CO)=N/NC(=O)CCCCCN1C(=O)C=CC1=O)C[C@@H]3O[C@H]1C[C@H](N)[C@H](O)[C@H](C)O1 | 20.9 µM | 18.6 µM | 18.6 µM | 356 | 539 | 492
20 | NC(=O)/C(=C/n1cnc(-c2cc(C(F)(F)F)cc(C(F)(F)F)c2)n1)c1cncnc1 | 11.8 µM | 5.9 µM | 9.34 µM | 322 | 459 | 438
21 | CC[C@@H]1C(=O)N(C)c2cnc(Nc3ccc(C(=O)NC4CCN(C)CC4)cc3OC)nc2N1C1CCCC1 | 20.9 µM | 16.6 µM | 16.6 µM | 412 | 461 | 404
22 | COc1ccc(C(=O)c2c(C)n(CCN3CCOCC3)c3ccccc23)cc1 | 10.5 µM | 5.25 µM | 5.25 µM | 389 | 431 | 402
23 | Cc1ccc(C(=O)Nc2cccc(C(F)(F)F)c2)cc1Nc1nc(-c2cccnc2)nc2c1cnn2C | 23.5 µM | 20.9 µM | 18.6 µM | 440 | 515 | 477
24 | COc1cc2nccc(Oc3ccc(NC(=O)Nc4cc(C)on4)c(Cl)c3)c2cc1OC | 14.8 µM | 29.5 µM | 14.8 µM | 422 | 516 | 415
25 | COc1cccc2cc(-c3nc([C@H]4CC[C@H](C(=O)O)CC4)n4ncnc(N)c34)[nH]c12 | 4.17 µM | 10.5 µM | 5.9 µM | 454 | 466 | 492

Row | SMILES | AC50 viability (CU-ACC1 [1]) | AC50 viability (CU-ACC2 [2]) | AC50 viability (NCI-H295R [3]) | area under concentration-response curve (CU-ACC1 [4]) | area under concentration-response curve (CU-ACC2 [5]) | area under concentration-response curve (NCI-H295R [6])
26 | c1ccc(Cn2c(-c3ccc(OCC(C4CCNCC4)n4c(-c5ccccc5)nc5ccccc54)cc3)nc3ccccc32)cc1 (stereo not given) | 11.8 µM | 11.8 µM | 9.34 µM | 387 | 391 | 363
27 | CCCCNc1ncc2c(-c3ccc(F)cc3)nn(C[C@H]3CC[C@H](N)CC3)c2n1 | 14.4 µM | 14.4 µM | 14.4 µM | 523 | 611 | 550
28 | Cc1cc(Cl)ccc1OCCCC(=O)NO | 20.9 µM | 18.6 µM | 20.9 µM | 442 | 512 | 495
29 | N#C/C(=C1/Nc2ccccc2S1)c1ccnc(OCc2ccc(CN3CCOCC3)cc2)n1 | 4.68 µM | 18.6 µM | 11.8 µM | 434 | 426 | 429
30 | Nc1ccccc1NC(=O)c1ccc(CNC(=O)OCc2cccnc2)cc1 | 3.72 µM | 14.8 µM | 3.72 µM | 422 | 523 | 440
31 | Cc1c[nH]c2nc(Nc3ccc(N4CCN(C)CC4)c(F)c3)nc(-c3cccc(CC#N)c3)c12 | 6.61 µM | 4.17 µM | 5.25 µM | 457 | 422 | 472
32 | CC(C)C[C@H](NC(=O)[C@H](CCc1ccccc1)NC(=O)CN1CCOCC1)C(=O)N[C@@H](Cc1ccccc1)C(=O)N[C@@H](CC(C)C)C(=O)[C@@]1(C)CO1 | 0.186 µM | 0.0235 µM | 0.166 µM | 302 | 256 | 359
33 | CC(=O)[C@]1(O)Cc2c(O)c3c(c(O)c2[C@@H](O[C@H]2C[C@H](N)[C@H](O)[C@H](C)O2)C1)C(=O)c1ccccc1C3=O | 20.9 µM | 20.9 µM | 14.8 µM | 428 | 485 | 377
34 | COc1cc(C)c(Sc2cnc(NC(=O)c3ccc(CNC(C)C(C)(C)C)cc3)s2)cc1C(=O)N1CCN(C(C)=O)CC1 (stereo not given) | 18.6 µM | 16.6 µM | 9.34 µM | 440 | 443 | 354
35 | C=CC(=O)Nc1cc2c(Nc3ccc(F)c(Cl)c3)ncnc2cc1OCCCN1CCOCC1 | 11.8 µM | 8.33 µM | 14.8 µM | 443 | 498 | 427
36 | CC(=O)Nc1ccc([C@H](C)C(=O)Nc2ncc(C(C)C)s2)cc1 | 9.34 µM | 5.25 µM | 18.6 µM | 448 | 376 | 485
37 | Cc1cc(Nc2cc(NC(=O)c3c(Cl)cccc3Cl)ccn2)nc(N)n1 | 11.8 µM | 5.9 µM | 13.2 µM | 457 | 522 | 439
38 | O=[N+]([O-])c1ccc(Nc2ccccc2-c2ccccc2)c2nonc12 | 9.34 µM | 8.33 µM | 8.33 µM | 426 | 467 | 434
39 | COC1=C(OC)C=C\2C(=C1)C(=O)N(CCCNCCO)\C3=C2C(=O)C4=C3C=C5OCOC5=C4 | 5.9 µM | 4.17 µM | 7.42 µM | 364 | 396 | 407
40 | CC(C)[C@@H](N(CCCN)C(=O)C1=CC=C(C)C=C1)C/2=N/C3=CC(=CC=C3C(=O)N2CC4=CC=CC=C4)Cl | 20.9 µM | 26.3 µM | 5.9 µM | 440 | 567 | 410
41 | CC[C@@H](C)Nc1cc(C(=O)NC2CC3CC[C@@H](C2)N3c2ccc(C(=O)C3CC3)cn2)c(C)cc1C(N)=O (stereo not given in full) | 0.59 µM | 0.118 µM | 0.59 µM | 330 | 405 | 408
42 | C[N]1C=NC=C1C(N)(C2=CC=C(Cl)C=C2)C3=CC\4=C(C=C3)N(C)C(=O)\C=C4C5=CC(=CC=C5)Cl (stereo not given) | 11.8 µM | 11.8 µM | 6.61 µM | 336 | 298 | 397
43 | Cc1ccc([N+](=O)[O-])cc1[S+](=O)([O-])N(C)/N=C/c1cnc2ccc(Br)cn12 | 0.417 µM | 0.166 µM | 0.417 µM | 226 | 332 | 346
44 | C[C@@H]1CN[C@H]2[C@@H](C)[C@@]3(CC[C@H]4[C@@H]5CC[C@@H]6C[C@@H](CC[C@]6(C)[C@H]5C\C4=C(C)\C3)N[S+](C)([O-])=O)O[C@@H]2C1 | 16.6 µM | 20.9 µM | 14.8 µM | 467 | 539 | 504
45 | CN1CCCN(C(=O)c2cccc(-c3ccc(/C=C4/C(=O)Nc5ccc(Cl)cc54)o3)c2)CC1 | 29.5 µM | 23.5 µM | 20.9 µM | 392 | 379 | 361
46 | CN1CCN(Cc2ccc(NC(=O)Nc3ccc(Oc4cc(NC(=O)C5CC5)ncn4)cc3)cc2C(F)(F)F)CC1 | 1.66 µM | 0.468 µM | 2.63 µM | 426 | 337 | 428
47 | N[S+]([O-])(=O)C1=CC=C(NC/2=C/C(=O)C3=CC=CC=C3C2=O)C=C1 | 0.59 µM | 13.2 µM | 2.35 µM | 290 | 463 | 403
48 | CC(C)C[C@H](NC(=O)CNC(=O)c1cc(Cl)ccc1Cl)B1OC(=O)CC(CC(=O)O)(C(=O)O)O1 (stereo not given in full) | 0.263 µM | 0.332 µM | 0.372 µM | 302 | 380 | 413
49 | CC(=O)NCC(=O)N1[C@@H]2CC[C@H]1c1ccc(Nc3ncc(C(F)(F)F)c(NC4CCC4)n3)cc12 | 18.6 µM | 10.5 µM | 16.6 µM | 502 | 443 | 459
50 | N#Cc1c(C2CCNCC2)cc(-c2c(O)cccc2OCC2CC2)nc1N | 10.5 µM | 0.934 µM | 1.05 µM | 291 | 269 | 275

Source: the supplement of paper PMC10949913
